Values of other authors as cited in patent publication US20050065125A1, “2-alkylidene-19-nor-vitamin D derivatives for the treatment of osteopenia or male osteoporosis” (Pfizer Inc, priority 2003, published 2005).

Conditions: chronic mode, 7 days, rats

Row | Compound | Bone calcium mobilization (serum calcium) activity relative to the native hormone 1,25-(OH)2D3
1 | C=C1[C@H](O)CC(=C/C=C2\CCC[C@]3(C)[C@@H]([C@H](C)CCCC(C)(C)O)CC[C@@H]23)C[C@H]1O [2-Methylene-19-Nor-1,25-(OH)2D3, 1α,25-dihydroxy-2-methylene-19-nor-vitamin D3] | 10-100 times
2 | C=C1[C@H](O)CC(=C/C=C2\CCC[C@]3(C)[C@@H]([C@@H](C)CCCC(C)(C)O)CC[C@@H]23)C[C@H]1O [2-Methylene-19-Nor-20S-1,25-(OH)2D3, (20S)-1α,25-dihydroxy-2-methylene-19-nor-vitamin D3] | at least 10 times
